# In patent publication US10793542B2, “Hetroarylamine compounds for modulating the hedgehog pathway and preparing method and uses thereof” (DEVELOPMENT CENTER FOR BIOTECHNOLOGY, priority 2016, dated 2020):
# Legend:
# Format in all cases: cell-based
# Smo D473H mutant = biological target: T1, Smo D473H mutant (Homo sapiens, UniProt Q99835, D473H); assay: Reporter assay of C3H10T1/2-Gli-Luc cells transfected with Smo D473H mutant, without SAG; details: C3H10T1/2 cells transfected with pLPCX-SMO-D473H, no SAG, 48 hr; read-out: Inhibition of C3H10T1/2-Gli-Luc-Smo-D473H [IC50
# T1 construct: expressed in transfected cells; host or cells: C3H10T1/2 cells (ATCC CCL-226), transient transfection with pLPCX-SMO-D473H
# T1 sequence (Q99835 28-787 D473H): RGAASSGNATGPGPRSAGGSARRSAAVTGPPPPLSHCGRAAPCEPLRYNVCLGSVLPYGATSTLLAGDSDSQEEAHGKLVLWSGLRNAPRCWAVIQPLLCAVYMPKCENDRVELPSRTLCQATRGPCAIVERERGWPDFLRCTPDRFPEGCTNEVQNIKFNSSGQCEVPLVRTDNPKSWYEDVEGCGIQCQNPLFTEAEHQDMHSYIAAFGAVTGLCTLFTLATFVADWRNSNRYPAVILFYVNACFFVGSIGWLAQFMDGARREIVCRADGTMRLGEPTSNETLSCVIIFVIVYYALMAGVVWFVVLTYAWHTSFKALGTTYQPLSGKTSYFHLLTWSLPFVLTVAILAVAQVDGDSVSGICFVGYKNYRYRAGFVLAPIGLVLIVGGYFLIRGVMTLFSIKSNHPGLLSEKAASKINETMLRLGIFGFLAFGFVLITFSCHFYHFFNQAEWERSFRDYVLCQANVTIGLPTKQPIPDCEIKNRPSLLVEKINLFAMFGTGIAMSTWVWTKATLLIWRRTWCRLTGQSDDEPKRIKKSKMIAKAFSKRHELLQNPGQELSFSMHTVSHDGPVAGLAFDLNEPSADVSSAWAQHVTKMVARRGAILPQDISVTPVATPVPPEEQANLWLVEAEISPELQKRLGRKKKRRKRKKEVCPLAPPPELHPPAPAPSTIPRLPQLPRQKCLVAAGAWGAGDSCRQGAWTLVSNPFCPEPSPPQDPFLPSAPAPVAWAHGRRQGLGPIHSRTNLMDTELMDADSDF
# Summary of the method: (§1)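 C3H10T1/2-Gli-Luc cells transiently transfected with wild-type or D473H SMO, replated in 0.5% FBS RPMI and incubated with compounds 48 h at 37 °C without SAG. Dual-luciferase, firefly normalized to Renilla; scaled to DMSO (100%) and 10 μM ALLO-2 (0%); IC50 by nonlinear regression.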
# [1] = test system: hedgehog pathway (pGL3-7xGli-Luciferase reporter in C3H10T1/2 cells); assay: Transient transfection of C3H10T1/2 and Gli-Luc reporter assay with SAG stimulation; details: Mus musculus, C3H 10T1/2, SAG 20 nM, 48 hr, read-out: Inhibition of Gli-Luc expression [IC50
# Summary of the method: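 C3H10T1/2 cells were transiently transfected with a 7xGli-firefly luciferase reporter and a TK-Renilla control, then treated with serially diluted compounds plus 20 nM SAG in 0.5% FBS for 48 h at 37 °C. Firefly signal was normalized to Renilla and scaled between DMSO with SAG (100%) and without SAG (0%). IC50 was obtained by nonlinear regression.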
# Smo wild type = biological target: T2, Smo wild type (Homo sapiens, UniProt Q99835); assay: Reporter assay of C3H10T1/2-Gli-Luc cells transfected with wild-type Smo, without SAG; details: C3H10T1/2 cells transfected with pLPCX-SMO, no SAG, 48 hr; read-out: Inhibition of C3H10T1/2-Gli-Luc-Smo-WT [IC50
# T2 construct: expressed in transfected cells; host or cells: C3H10T1/2 cells (ATCC CCL-226), transient transfection with pLPCX-SMO
# T2 sequence (Q99835 28-787): as the sequence (Q99835 28-787 D473H) above, with H446D counted along it
# Summary of the method: as §1
Structure (SMILES),IC50 (Smo D473H mutant),IC50 [1],IC50 (Smo wild type)
"COc1cccc(OC)c1NC(=O)c1ccc(Nc2ncc(SC)c(-c3ccccc3)n2)cc1 [Compound 21, N-(2,6-Dimethoxy-phenyl)-4-(5-methylsulfanyl-4-phenyl-pyrimidin-2-ylamino)-benzamide]",100 to 1000 nM,< 100 nM,< 100 nM
"Cc1ccc(CN2CCOCC2)cc1NC(=O)c1ccc(Nc2ncc(N)c(-c3ccc(OC(F)(F)F)cc3)n2)cc1 [Compound 88, 4-((5-amino-4-(4-(trifluoromethoxy)phenyl)pyrimidin-2-yl)amino)-N-(2-methyl-5-(morpholinomethyl)phenyl)benzamide]",< 100 nM,< 100 nM,< 100 nM
"CSc1cnc(Nc2ccc(C(=O)Nc3ccccc3)cc2)nc1-c1cccnc1F [Compound 5, 4-[4-(2-Fluoro-pyridin-3-yl)-5-methylsulfanyl-pyrimidin-2-ylamino]-N-phenyl-benzamide]",100 to 1000 nM,100 to 1000 nM,100 to 1000 nM
"COc1ccc(CN2CCOCC2)cc1NC(=O)c1ccc(Nc2ncc(SC)c(-c3ccc(F)cc3)n2)cc1 [Compound 59, 4-[4-(4-Fluoro-phenyl)-5-methylsulfanyl-pyrimidin-2-ylamino]-N-(2-methoxy-5-morpholin-4-ylmethyl-phenyl)-benzamide]",100 to 1000 nM,100 to 1000 nM,100 to 1000 nM
